Here are results for 1 compound from article PMC10765126, “High-throughput computational screening and in vitro evaluation identifies 5-(4-oxo-4H-3,1-benzoxazin-2-yl)-2-[3-(4-oxo-4H-3,1-benzoxazin-2-yl) phenyl]-1H-isoindole-1,3(2H)-dione (C3), as a novel EGFR—HER2 dual inhibitor in gastric tumors” (Oncology Research, 2023).

Assay [1] deals with EGFR (Homo sapiens, UniProt P00533, L858R/T790M). Description: luminescence kinase assay (Kinase-Glo Max, BPS Bioscience EGFR (T790M/L858R) kit, […] ATP). It counts as biochemical.
Chain of EGFR (P00533 696-1210 T790M/L858R limits assumed): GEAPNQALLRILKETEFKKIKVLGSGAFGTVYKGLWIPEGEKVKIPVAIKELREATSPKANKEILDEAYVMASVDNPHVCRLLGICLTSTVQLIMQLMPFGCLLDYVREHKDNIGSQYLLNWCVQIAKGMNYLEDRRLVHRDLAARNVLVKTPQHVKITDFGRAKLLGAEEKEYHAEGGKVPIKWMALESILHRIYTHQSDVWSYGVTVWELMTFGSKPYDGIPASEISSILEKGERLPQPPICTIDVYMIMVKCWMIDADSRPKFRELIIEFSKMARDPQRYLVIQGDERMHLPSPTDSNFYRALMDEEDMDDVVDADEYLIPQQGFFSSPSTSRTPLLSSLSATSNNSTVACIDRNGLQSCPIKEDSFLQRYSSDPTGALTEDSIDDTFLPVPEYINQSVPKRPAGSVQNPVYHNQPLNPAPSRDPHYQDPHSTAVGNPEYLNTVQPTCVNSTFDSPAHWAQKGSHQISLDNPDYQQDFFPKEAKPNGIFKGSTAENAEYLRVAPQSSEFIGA
For assay [2], the target named is T1, HER2 (Homo sapiens, UniProt P04626).
T1 construct: gene ERBB2
T1 sequence (P04626 23-1255): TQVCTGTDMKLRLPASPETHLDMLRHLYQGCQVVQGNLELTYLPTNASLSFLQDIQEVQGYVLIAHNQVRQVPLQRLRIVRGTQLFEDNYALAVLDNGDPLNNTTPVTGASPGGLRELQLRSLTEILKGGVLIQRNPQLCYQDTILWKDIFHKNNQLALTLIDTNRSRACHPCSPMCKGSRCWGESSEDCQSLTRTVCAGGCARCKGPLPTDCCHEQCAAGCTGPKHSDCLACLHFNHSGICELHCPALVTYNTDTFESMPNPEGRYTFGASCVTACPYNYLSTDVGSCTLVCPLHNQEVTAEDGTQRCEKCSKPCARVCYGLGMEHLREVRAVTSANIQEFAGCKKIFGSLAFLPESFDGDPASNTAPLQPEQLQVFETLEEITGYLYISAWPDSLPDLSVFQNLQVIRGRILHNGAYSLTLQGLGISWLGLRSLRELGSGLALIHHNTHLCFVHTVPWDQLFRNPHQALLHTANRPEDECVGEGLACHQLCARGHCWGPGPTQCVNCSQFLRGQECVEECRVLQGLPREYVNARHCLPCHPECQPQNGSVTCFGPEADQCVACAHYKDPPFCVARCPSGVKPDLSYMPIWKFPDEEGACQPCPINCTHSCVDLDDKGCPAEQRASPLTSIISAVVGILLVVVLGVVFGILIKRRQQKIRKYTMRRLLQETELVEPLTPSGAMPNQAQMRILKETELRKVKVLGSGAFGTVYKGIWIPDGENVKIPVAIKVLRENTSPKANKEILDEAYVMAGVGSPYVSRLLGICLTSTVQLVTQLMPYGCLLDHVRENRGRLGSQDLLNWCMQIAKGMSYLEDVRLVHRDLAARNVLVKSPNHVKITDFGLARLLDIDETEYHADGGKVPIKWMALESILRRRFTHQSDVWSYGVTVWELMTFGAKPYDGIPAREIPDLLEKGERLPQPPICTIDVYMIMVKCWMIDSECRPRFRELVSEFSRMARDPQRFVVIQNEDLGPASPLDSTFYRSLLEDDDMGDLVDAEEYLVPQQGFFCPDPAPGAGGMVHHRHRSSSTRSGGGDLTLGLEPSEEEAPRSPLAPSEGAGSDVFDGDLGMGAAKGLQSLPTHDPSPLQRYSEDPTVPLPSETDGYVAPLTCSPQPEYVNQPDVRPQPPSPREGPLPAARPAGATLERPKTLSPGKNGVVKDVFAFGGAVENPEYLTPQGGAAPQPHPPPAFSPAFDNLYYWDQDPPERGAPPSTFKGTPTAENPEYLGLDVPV
Description: luminescence kinase assay (Kinase-Glo Max, BPS Bioscience HER2 kit, […] ATP). The class given is biochemical.

On to `O=C1c2ccc(-c3nc4ccccc4c(=O)o3)cc2C(=O)N1c1cccc(-c2nc3ccccc3c(=O)o2)c1` [C3, 5-(4-oxo-4H-3,1-benzoxazin-2-yl)-2-[3-(4-oxo-4H-3,1-benzoxazin-2-yl)phenyl]-1H-isoindole-1,3(2H)-dione], for which the IC50 in assay [1] was 37.2 nM; in assay [2] it was 45.8 nM.

What is called IC50 is the concentration needed to halve the response being measured. Low values mean greater potency, high ones weaker potency.
